From patent publication US4075339A, “Biologically active compounds” (University of Illinois Foundation, priority 1976, dated 1978) come the findings set out here.

SMILES strings stand for the structures. Converted amounts (≈) assume the structure as drawn.

Usually remaining activity stands for the signal under treatment as a percentage of the control signal. In general, inhibition refers to the drop in the measured response relative to a control, in per cent.

Assay [1] has as its system St. Faecalis. The experiment in a line: Bacterial inhibition, MIC in brain heart infusion broth. Type of assay: cell-based. The following applies: Enterococcus faecalis, read-out: MIC (minimal inhibitory concentration). The source says: (§1) ^a Minimal inhibitory concentration in brain heart infusion broth.
For assay [2], the system named is P. vulgaris. The description is as above. It counts as cell-based. The conditions noted are these: Proteus vulgaris, read-out: MIC (minimal inhibitory concentration).
Source text: as §1

Assay [3] concerns Ps. aeruginosa. Described as above. The following applies: Pseudomonas aeruginosa, read-out: MIC (minimal inhibitory concentration). It counts as cell-based.
Source text: as §1

The test system of assay [4] is K. pneumoniae. The description is as above. It counts as cell-based. The following applies: Klebsiella pneumoniae, read-out: MIC (minimal inhibitory concentration).
Source text: as §1

Assay [5] deals with E. coli. The assay is described as above. The conditions noted are these: Escherichia coli, read-out: MIC (minimal inhibitory concentration). It counts as cell-based.
Source text: as §1

Assay [6] has as its system D. penumoniae. The description is as above. Type of assay: cell-based. The conditions noted are these: read-out: MIC (minimal inhibitory concentration).
Source text: as §1

Assay [7] concerns S. Hemolyticus. The description is as above. The following applies: read-out: MIC (minimal inhibitory concentration). Type of assay: cell-based.
Source text: as §1

Assay [8] has as its system S. aureus. The assay is described as above. It counts as cell-based. The following applies: Staphylococcus aureus, read-out: MIC (minimal inhibitory concentration).
Source text: as §1

In assay [9] the test system is Reverse Transcriptase of Rauscher Leukemia Virus. The assay is described as follows: Inhibition of Reverse Transcriptase of Rauscher Leukemia Virus. Type of assay: biochemical. Also on record: Reverse Transcriptase of Rauscher Leukemia Virus % Inhibition: concentration or dose not given beside the values. The conditions noted are these: for Reverse Transcriptase of Rauscher Leukemia Virus % Inhibition: 37° C. for 90 minutes (Table 3); for Reverse transcriptase activity, cpm: 37° C. for 90 minutes, control 5396 cpm; for RLV Reverse Transcriptase % Inhibition: at a concentration of 0.25 μmole/ml (Table 4), 90 min. Here is the method: *(The reverse transcriptase activity was measured at 37° C. for 90
(§2) Table 4, below, relates to the activity of compounds of Examples VIII through XVIII as bacterial RNA polymerase inhibitors and as inhibitors of reverse transcriptase when tested in the manner the compounds of Examples I through V as related, supra, in Tables 2 and 3.
**At a concentration of 0.25 μmole/ml.

For assay [10], the target named is E. coli RNA Polymerase (Escherichia coli, UniProt P0A8V2). The assay is described as follows: E. coli RNA Polymerase Inhibition. It counts as biochemical. The conditions noted are these: 0.25 h; for remaining activity at 500 µM: 0.5 μM/ml of compound, room temperature, 15 minutes, control = 100; for inhibition at 500 µM: at a concentration of 0.5 μmole/ml (Table 4). As to the method:
The assay mixtures contained, in a total volume of 0.25 ml: (Tris)HCl
buffer, pH 7.9, 5 μmoles; MgCl2, 1 μmole; mercaptoethanol, 3
μmoles; MpCl2, 0.25 μmole: GTP, UTP, and CTP, 0.1 μmole
polymerase, 0.5 units; and […] of compound. Reactions were run a
room temperature for 15 minutes.
as §2
*At a concentration of 0.5 μmole/ml.

E. coli RNA Polymerase, sequence (P0A8V2 whole entry): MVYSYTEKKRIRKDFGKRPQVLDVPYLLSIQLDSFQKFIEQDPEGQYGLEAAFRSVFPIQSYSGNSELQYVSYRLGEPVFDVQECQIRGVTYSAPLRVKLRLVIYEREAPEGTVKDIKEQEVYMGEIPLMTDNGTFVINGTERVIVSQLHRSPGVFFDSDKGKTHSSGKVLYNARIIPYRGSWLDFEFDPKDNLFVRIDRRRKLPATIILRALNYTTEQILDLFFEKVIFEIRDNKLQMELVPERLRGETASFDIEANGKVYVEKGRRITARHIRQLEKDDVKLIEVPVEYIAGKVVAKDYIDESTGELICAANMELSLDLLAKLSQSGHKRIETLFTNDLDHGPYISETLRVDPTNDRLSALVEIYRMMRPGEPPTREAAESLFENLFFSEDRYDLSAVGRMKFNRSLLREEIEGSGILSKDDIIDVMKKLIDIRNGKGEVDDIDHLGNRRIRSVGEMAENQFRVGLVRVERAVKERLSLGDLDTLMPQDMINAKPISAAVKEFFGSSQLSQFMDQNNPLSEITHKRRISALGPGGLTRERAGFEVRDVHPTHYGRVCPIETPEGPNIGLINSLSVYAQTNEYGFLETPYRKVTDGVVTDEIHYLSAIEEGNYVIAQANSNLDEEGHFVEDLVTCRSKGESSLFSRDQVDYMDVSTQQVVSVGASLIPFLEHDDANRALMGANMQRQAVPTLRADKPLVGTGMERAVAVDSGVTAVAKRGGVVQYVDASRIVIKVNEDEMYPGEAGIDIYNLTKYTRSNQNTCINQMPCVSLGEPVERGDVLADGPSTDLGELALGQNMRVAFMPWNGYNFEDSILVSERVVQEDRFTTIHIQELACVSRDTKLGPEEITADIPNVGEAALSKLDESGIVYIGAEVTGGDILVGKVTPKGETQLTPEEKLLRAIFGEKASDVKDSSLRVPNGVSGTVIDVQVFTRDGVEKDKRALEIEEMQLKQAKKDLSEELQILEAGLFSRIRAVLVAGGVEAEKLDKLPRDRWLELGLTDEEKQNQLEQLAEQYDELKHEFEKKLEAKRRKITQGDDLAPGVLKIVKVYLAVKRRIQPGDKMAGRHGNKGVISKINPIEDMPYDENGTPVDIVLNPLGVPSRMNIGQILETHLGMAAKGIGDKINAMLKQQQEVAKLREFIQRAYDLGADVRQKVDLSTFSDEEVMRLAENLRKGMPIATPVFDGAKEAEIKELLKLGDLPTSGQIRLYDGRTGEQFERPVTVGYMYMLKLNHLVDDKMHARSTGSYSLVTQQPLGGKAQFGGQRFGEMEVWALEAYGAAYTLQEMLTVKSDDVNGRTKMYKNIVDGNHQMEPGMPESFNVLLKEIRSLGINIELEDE
E. coli RNA Polymerase, sequence (P0A8T7 whole entry partner): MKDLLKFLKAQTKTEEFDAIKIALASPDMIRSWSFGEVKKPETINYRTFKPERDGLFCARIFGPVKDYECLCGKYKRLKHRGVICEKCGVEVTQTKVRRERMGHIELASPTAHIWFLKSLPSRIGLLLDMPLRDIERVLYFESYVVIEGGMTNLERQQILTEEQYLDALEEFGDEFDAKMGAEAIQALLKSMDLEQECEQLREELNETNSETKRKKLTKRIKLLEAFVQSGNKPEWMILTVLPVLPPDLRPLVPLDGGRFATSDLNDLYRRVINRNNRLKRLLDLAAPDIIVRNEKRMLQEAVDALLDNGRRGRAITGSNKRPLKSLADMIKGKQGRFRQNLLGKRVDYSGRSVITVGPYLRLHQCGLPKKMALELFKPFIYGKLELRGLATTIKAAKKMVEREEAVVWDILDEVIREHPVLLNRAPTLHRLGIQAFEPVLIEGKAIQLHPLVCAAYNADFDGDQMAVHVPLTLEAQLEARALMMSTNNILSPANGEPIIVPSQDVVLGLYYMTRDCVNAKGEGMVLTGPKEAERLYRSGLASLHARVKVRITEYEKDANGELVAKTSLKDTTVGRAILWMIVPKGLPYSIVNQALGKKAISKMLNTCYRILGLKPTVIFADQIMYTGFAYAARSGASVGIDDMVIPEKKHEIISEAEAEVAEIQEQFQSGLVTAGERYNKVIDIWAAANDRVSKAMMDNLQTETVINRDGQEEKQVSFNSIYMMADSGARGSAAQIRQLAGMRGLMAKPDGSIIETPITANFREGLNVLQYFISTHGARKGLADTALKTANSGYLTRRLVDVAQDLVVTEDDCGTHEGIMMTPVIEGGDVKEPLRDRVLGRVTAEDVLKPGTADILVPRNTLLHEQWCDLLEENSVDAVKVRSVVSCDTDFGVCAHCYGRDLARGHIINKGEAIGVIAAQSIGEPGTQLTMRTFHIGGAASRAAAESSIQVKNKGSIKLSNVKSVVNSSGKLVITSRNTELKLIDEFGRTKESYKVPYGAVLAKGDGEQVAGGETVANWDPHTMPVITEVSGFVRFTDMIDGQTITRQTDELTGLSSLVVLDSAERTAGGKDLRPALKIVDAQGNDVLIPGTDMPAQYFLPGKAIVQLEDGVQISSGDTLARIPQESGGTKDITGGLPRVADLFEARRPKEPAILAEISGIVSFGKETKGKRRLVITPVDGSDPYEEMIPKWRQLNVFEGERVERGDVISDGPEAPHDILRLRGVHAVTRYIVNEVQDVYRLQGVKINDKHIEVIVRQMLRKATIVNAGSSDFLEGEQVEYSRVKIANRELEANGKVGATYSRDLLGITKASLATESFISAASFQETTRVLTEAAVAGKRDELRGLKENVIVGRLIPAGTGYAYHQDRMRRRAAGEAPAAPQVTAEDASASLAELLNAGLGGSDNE
E. coli RNA Polymerase, sequence (P0A7Z4 whole entry partner): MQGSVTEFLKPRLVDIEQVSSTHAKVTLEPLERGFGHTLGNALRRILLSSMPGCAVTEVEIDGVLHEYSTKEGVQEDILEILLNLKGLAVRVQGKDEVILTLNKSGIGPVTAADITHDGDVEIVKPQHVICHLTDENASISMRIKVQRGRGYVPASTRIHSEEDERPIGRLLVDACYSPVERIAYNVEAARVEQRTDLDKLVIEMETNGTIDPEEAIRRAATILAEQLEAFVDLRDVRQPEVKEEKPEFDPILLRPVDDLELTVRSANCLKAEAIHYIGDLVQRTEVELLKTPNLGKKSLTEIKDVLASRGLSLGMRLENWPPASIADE
E. coli RNA Polymerase, sequence (P0A800 whole entry partner): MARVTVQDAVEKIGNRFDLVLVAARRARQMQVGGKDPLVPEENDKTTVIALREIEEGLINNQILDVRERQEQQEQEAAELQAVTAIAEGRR

`COC1=C2CC(C)CC(OC)C(O)C(C)/C=C(\C)C(OC(N)=O)C(OC)/C=C\C=C(/C)C(=O)NC(=C(C=NC(C)(C)C)C1=O)C2=O` (stereo not shown) [Example I]: the MIC in assay [1] was > 500 µg/mL; in assay [2], 500 µg/mL (≈ 777 µM); in assay [3], 250 µg/mL (≈ 388 µM); in assay [4] it was 500 µg/mL (≈ 777 µM); in assay [5], 500 µg/mL (≈ 777 µM); in [6] it was 250 µg/mL (≈ 388 µM). The MIC in assay [7] was found to be 250 µg/mL (≈ 388 µM); in assay [8], 500 µg/mL (≈ 777 µM). Besides, in [9], the “Reverse Transcriptase of Rauscher Leukemia Virus % Inhibition” value is 93.0%. Moreover, in [9], the “Reverse transcriptase activity, cpm” value came out at 376 cpm. In addition, the remaining activity at 500 µM in assay [10] was found to be 99%.
Take `COC1=C2CC(C)CC(OC)C(O)C(C)/C=C(\C)C(OC(N)=O)C(OC)/C=C\C=C(/C)C(=O)NC(=C(C=NOC(c3ccccc3)c3ccccc3)C1=O)C2=O` (stereo not shown) [III]: the MIC in assay [1] is > 500 µg/mL; in assay [2], > 500 µg/mL; in assay [3], > 500 µg/mL; in assay [4], > 500 µg/mL; in assay [5] it was > 500 µg/mL; in [6], 62.5 µg/mL (≈ 81.2 µM). The MIC was 31.2 µg/mL (≈ 40.5 µM) in [7] and > 500 µg/mL in assay [8]. For the same compound, the “Reverse Transcriptase of Rauscher Leukemia Virus % Inhibition” value in assay [9] is on record as 98.6%. Also, in assay [9], the “Reverse transcriptase activity, cpm” value is listed as 75 cpm. Also, the remaining activity at 500 µM in assay [10] was 84%.
For `COC1=C2CC(C)CC(OC)C(O)C(C)/C=C(\C)C(OC(N)=O)C(OC)/C=C\C=C(/C)C(=O)NC(=C(C=NN3CCN(C)CC3)C1=O)C2=O` (stereo not shown) [II], the MIC in assay [1] is > 500 µg/mL; in [2] it was 500 µg/mL (≈ 729 µM); in [3], 250 µg/mL (≈ 365 µM); in assay [4] it was 500 µg/mL (≈ 729 µM); in assay [5], 500 µg/mL (≈ 729 µM); in assay [6], 500 µg/mL (≈ 729 µM). Further, the MIC in assay [7] was 500 µg/mL (≈ 729 µM); in assay [8], > 500 µg/mL. In [9], the “Reverse Transcriptase of Rauscher Leukemia Virus % Inhibition” value stood at 93.4%. For the same compound, the “Reverse transcriptase activity, cpm” value in [9] was determined as 357 cpm. Besides, the remaining activity at 500 µM in assay [10] came out at 106%.
`CCCCCCCCON=CC1=C2NC(=O)/C(C)=C/C=C\C(OC)C(OC(N)=O)/C(C)=C/C(C)C(O)C(OC)CC(C)CC(=C(OC)C1=O)C2=O` (stereo not shown) [IV]: the MIC in [1] is > 500 µg/mL; in assay [2] it was > 500 µg/mL; in [3], > 500 µg/mL; in assay [4], > 500 µg/mL; in assay [5], > 500 µg/mL; in assay [6], 7.8 µg/mL (≈ 10.9 µM). Further, the MIC in assay [7] was 7.8 µg/mL (≈ 10.9 µM); in [8], > 500 µg/mL. Further, the “Reverse Transcriptase of Rauscher Leukemia Virus % Inhibition” value in [9] came out at 94.4%. Also, the “Reverse transcriptase activity, cpm” value in assay [9] was found to be 303 cpm. For the same compound, in assay [10], the remaining activity at 500 µM is 110%.
As for `COC1/C=C\C=C(/C)C(=O)Nc2cc3nc4ccccc4nc3c(c2O)CC(C)CC(OC)C(O)C(C)/C=C(\C)C1OC(N)=O` (stereo not shown) [VIII, demethoxygeldanazine], the “RLV Reverse Transcriptase % Inhibition” value in [9] stood at 98%. In addition, in assay [10], the inhibition at 500 µM was 5 to 16%.
Take `COC1=C2CC(C)CC(OC)C(O)C(C)/C=C(\C)C(OC(N)=O)C(OC)/C=C\C=C(/C)C(=O)NC(=C(C=NN3CCN(Cc4ccccc4)CC3)C1=O)C2=O` (stereo not shown) [V]: the MIC in assay [1] was found to be 500 µg/mL (≈ 656 µM); in assay [2] it was 500 µg/mL (≈ 656 µM); in assay [3], 250 µg/mL (≈ 328 µM); in [4], 500 µg/mL (≈ 656 µM); in [5], 500 µg/mL (≈ 656 µM); in assay [6], 62.5 µg/mL (≈ 82 µM). Besides, the results for the MIC in assay [7] and in [8] were 125 µg/mL (≈ 164 µM) and 500 µg/mL (≈ 656 µM), respectively. For the same compound, in assay [9], the “Reverse Transcriptase of Rauscher Leukemia Virus % Inhibition” value is given as 97.1%. Further, the “Reverse transcriptase activity, cpm” value in [9] came out at 154 cpm. Moreover, in assay [10], the remaining activity at 500 µM worked out at 88%.
Consider `COC1/C=C\C=C(/C)C(=O)Nc2cc3nc4ccc(C)cc4oc-3c(c2=O)CC(C)CC(OC)C(O)C(C)/C=C(\C)C1OC(N)=O` (stereo not shown) [XIII], for which the “RLV Reverse Transcriptase % Inhibition” value in assay [9] was 77%. Moreover, the inhibition at 500 µM in [10] was 21%.
For `COC1/C=C\C=C(/C)C(=O)Nc2cc3nc4cc(C)ccc4oc-3c(c2=O)CC(C)CC(OC)C(O)C(C)/C=C(\C)C1OC(N)=O` (stereo not shown) [XII] the same measures were 89% and 9%.
For the compound `COC1/C=C\C=C(/C)C(=O)Nc2cc3nc4cccc(C)c4oc-3c(c2=O)CC(C)CC(OC)C(O)C(C)/C=C(\C)C1OC(N)=O` (stereo not shown) [XIV], the “RLV Reverse Transcriptase % Inhibition” value in [9] is on record as 72%. Further, the inhibition at 500 µM in assay [10] came to 6%.
Taken in the same sequence, the figures for `COC1/C=C\C=C(/C)C(=O)Nc2cc3nc4ccccc4oc-3c(c2=O)CC(C)CC(OC)C(O)C(C)/C=C(\C)C1OC(N)=O` (stereo not shown) [XI] were 98% and 61 to 67%.
Take `COC(=O)[C@@H](NC(=O)c1ccc(C)c2oc3c4c(=O)c(cc-3nc12)NC(=O)/C(C)=C/C=C\C(OC)C(OC(N)=O)/C(C)=C/C(C)C(O)C(OC)CC(C)C4)[C@@H](C)O` (stereo partly shown) [XVIII]: in [9], the “RLV Reverse Transcriptase % Inhibition” value stood at 0%.
On to `COC(=O)c1cccc2oc3c4c(=O)c(cc-3nc12)NC(=O)/C(C)=C/C=C\C(OC)C(OC(N)=O)/C(C)=C/C(C)C(O)C(OC)CC(C)C4` (stereo not shown) [XVII], for which, in [9], the “RLV Reverse Transcriptase % Inhibition” value is given as 0%.
The same measure, in the same setting: for `COC1/C=C\C=C(/C)C(=O)Nc2cc3nc4cc(Cl)ccc4oc-3c(c2=O)CC(C)CC(OC)C(O)C(C)/C=C(\C)C1OC(N)=O` (stereo not shown) [XVI] the value was 60%.
Take `COC1/C=C\C=C(/C)C(=O)Nc2cc3nc4cc(Br)ccc4oc-3c(c2=O)CC(C)CC(OC)C(O)C(C)/C=C(\C)C1OC(N)=O` (stereo not shown) [XV]: the “RLV Reverse Transcriptase % Inhibition” value in assay [9] is 82 - 100%. In addition, in assay [10], the inhibition at 500 µM was 60%.
